Key:
[1] = Blood chemistries in C57 B mice; type: in vivo, mouse; conditions: 4 mg/kg b.w. alternate day, 2 weeks
Method: To evaluate the potential toxicity of COH-SR4 on animals, C57 B mice were treated with 0.1 mg/mice (4 mg/kg b.w.) of COH-SR4 or with vehicle on alternate day for 2 weeks (n=6). After the treatment period, blood and plasma/serum were isolated and analyzed. […] The plasma alanine transaminase (ALT) and alkaline phosphatase (ALP) were moderately higher in COH-SR4-treated mice (p<0.05), while the levels of two other liver enzymes; aspartate transaminase (AST) and lactate dehydrogenase (LDH) were similar with control mice (Table 5).

[2] = COH-SR4 in mice serum, HPLC analysis; type: in vivo, mouse; conditions: 4 mg/kg oral
Method: Hsd: Athymic nude nu/nu mice obtained from Harlan, Indianapolis, Ind. were used for the oral administration of COH-SR4 on lung cancer progression in in-vivo xenograft model. Twelve 10-weeks-old mice were divided into two groups of 6 animals (treated with corn oil (vehicle), and COH-SR4 4 mg/kg b.w.). All animals were subcutaneously injected with 2×10^6 H358 cells in 100 μL of PBS into one flank of each mouse. Treatment was started 10 days after the implantation of cells to see palpable tumor growth. Treatment consisted of 0.1 mg (4 mg/kg b.w.) of COH-SR4/mice in 200 μL corn oil by oral gavage alternate day. Control groups were treated with 200 μL corn oil by oral gavage alternate day. Animals were examined daily for signs of tumor growth and body weights were recorded. […] Tumors were measured in two dimensions using calipers. […] (FIG. 81B). […] Photographs of animals were taken at day 1, day 10, day 14, day 18, day 30 and day 60 after subcutaneous injection, are shown for all groups (FIG. 81D). The absorption of orally administered COH-SR4 in mice was assessed.

A375 = assay: Colony formation assay, A375; type: cell-based, human; conditions: 5 μM
Method: (§1) Cell survival was evaluated using a standard colony-forming assay. In total, 1×10^5 cells/mL were incubated with COH-SR4 (1.5 μM or 5 μM) or elesclomol (5 μM) for 24 h, and aliquots of 50 or 100 μL were added to 60 mm size petri dishes, containing 4 mL culture medium. After 7 or 10 days, adherent colonies were fixed, stained with 0.5% methylene blue for 30 min and colonies were counted using the Innotech Alpha Imager HP (91).

AMPK = AMPK activation in human melanoma cell lines; type: cell-based; conditions: regardless of BRAF, NRAS and LKB1 mutation
Method: Cell or tissue proteins were extracted with cell lysis buffer (Cell Signaling Technology) and protein concentration was determined using the DC Protein Assay kit (Bio-Rad, Hercules, Calif., USA). Equal amount of proteins (˜40 μg) were loaded onto 4-15% Criterion TGX gels (Bio-Rad, Hercules, Calif.), resolved by SDS-PAGE electrophoresis, and then transferred onto nitrocellulose membranes for immunoblotting. Membranes were blocked with 5% skimmed milk in Tris-buffered saline containing 0.05% Tween 20 before incubation overnight at 4° C. with desired primary antibodies. Immuno-reactive proteins were visualized by peroxidase-labeled secondary antibodies and ECL system (Western Lightning Chemiluminescence Reagent, Perkin-Elmer, Mass., USA). Equal loading of proteins was confirmed by stripping and re-probing the membranes with either β-actin or GAPDH antibodies. Band intensities were quantified using a densitometer (Quantity One, Bio-Rad, Hercules, Calif.).
One of the consequences of mitochondria uncoupling is decrease intracellular ATP production, leading to increased AMP:ATP ratio and triggering activation of the energy-sensitive enzyme AMPK. It has been previously shown that COH-SR4 indirectly activates AMPK in a time- and dose-dependent manner in both HepG2 cells and 3T3-adipocytes. […] In melanomas, mutation rates for BRAF NRAS and LKB1 are 50-70%, 5-30%, and 10%, respectively. […]

H520 = assay: Colony formation assay, H520; type: cell-based, human; conditions: 1.5 μM
Method: as §1
The effect of COH-SR4 was first examined in a NCI panel of cancer cell lines, the results of which indicated good activity of COH-SR4 towards lung cancer (FIG. 78A). […] Values are presented as mean±SD from two separate determinations with eight replicates each (n=16) (FIG. 78B). The COH-SR4 treatment exerted a significant inhibitory effect on the survival of lung cancer cells [IC50: H1417 cells-1.2±0.2 μM, H1618 cells-1.5±0.2 μM, H358 cells-2.1±0.2 μM and H520 cells-2.4±0.3 μM]. […] Following initial screening for the anticancer activity of COH-SR4, the effect of COH-SR4 on clonogenic potential was studied. Standard colony-forming assay was performed and the colonies were counted using Innotech Alpha Imager HP. […] The effect of COH-SR4 on induction of apoptosis was further investigated. […] TUNEL assay was performed using Promega fluorescence detection kit and examined using Zeiss LSM 510 META laser-scanning fluorescence microscope with filters 520 and 620 nm. […]

Hs600T = assay: MTT assay, Hs600T; type: cell-based; conditions: Homo sapiens
Method: Cell density measurements were performed using a hemocytometer to count reproductive cells resistant to staining with trypan blue. Approximately 20,000 cells were plated into each well of 96-well flat-bottomed micro-titer plates. After 12 h or 24 h incubation at 37° C., medium containing either COH-SR4 (ranging 0-200 μM) or elesclomol (ranging 0-20 μM) were added to the cells. After 24 h, 48 h or 96 h incubation, 20 μL of 5 mg/mL MTT were introduced to each well and incubated for 2 h. The plates were centrifuged and medium was decanted. Cells were subsequently dissolved in 100 μl DMSO with gentle shaking for 2 h at room temperature, followed by measurement of OD570 (91).
Cells of highly aggressive mouse melanoma cell line B16-F0 or human melanoma cell line Hs600T were incubated with various doses of COH-SR4 (1, 2.5, 5, 10, 25, 50, or 100 μM). The cell viabilities after treatment of 48 hours and 96 hours were measured and summarized in FIGS. 54A and 55A, respectively. […] Data were presented as mean±Standard Deviation from two separate determinations with eight replicate each (n=16).

O=C(Nc1cc(Cl)cc(Cl)c1)Nc1cc(Cl)cc(Cl)c1 [COH-SR4, 1,3-bis(3,5-dichlorophenyl) urea]
Hematocrit ([1]; mean ± SE, n=6): 41.0 ± 0.7% | Hemoglobin ([1]; mean ± SE, n=6): 13.9 ± 0.4 g/dL | Platelets ([1]; mean ± SE, n=6): 1055 ± 124 ×10^3/uL | RBC ([1]; mean ± SE, n=6): 8.7 ± 0.2 ×10^6/uL | WBC ([1]; mean ± SE, n=6): 7.4 ± 0.9 ×10^3/uL | ALP ([1]; plasma/serum): 119.3 ± 2.4 units/L | ALT ([1]; plasma/serum): 73.3 ± 2.4 units/L | AST ([1]; plasma/serum): 48.0 ± 3.0 units/L | Albumin ([1]; plasma/serum): 2.4 ± 0.1 g/dL | Cholsterol ([1]; plasma/serum): 82.0 ± 0.1 mg/dL | Creatinine ([1]; plasma/serum): 0.2 ± 0.0 mg/dL | Glucose ([1]; plasma/serum): 304.2 ± 21.1 mg/dL | LDH ([1]; plasma/serum): 822.7 ± 56.0 units/L | Triglycerides ([1]; plasma/serum): 78.7 ± 2.4 mg/dL | serum concentration [2]: 1100 ± 300 nM | colony formation (A375): 42±6% | activation of AMPK (AMPK): dose- and time-dependent activation of AMPK | colony formation (H520): 54±5% | IC50 (Hs600T; 48 h): ~10 µM | IC50 (Hs600T; 96 h): ~6 µM

From patent US9808434B2, “Compound for treating cancer and diabetes” (CITY OF HOPE, priority 2011, dated 2017)
